These results are taken from patent US7022737B2, “Manipulating nitrosative stress to kill pathologic microbes, pathologic helminths and pathologically proliferating cells or to upregulate nitrosative stress defenses” (Duke University, priority 1996, dated 2006).

In series [1] the test system is metastatic malignant melanoma. Description: Patient with metastatic malignant melanoma. Type of series: in vivo. The following applies: L-buthionine-S-sulfoximine 2 mmol/kg p.o. every 4 hours and hydroxyurea 10 mg/kg p.o., one week. The protocol:
A person […] and a history of surgery five years previously to remove malignant melanotic nevi from their upper back and chest is found to have blood in their stool on routine physical examination. […] The patient is administered L-buthionine-S-sulfoximine (2 mmol/kg) p.o. every 4 hours for one week and is given 10 mg/kg of hydroxyurea p.o. 1 hour after every third dose of L-buthionine-S-sulfoximine. […] The patient shown no further evidence of metastases during a six month follow-up.

In another series the target is T1, rat kidney gamma-GCS (Rattus norvegicus, UniProt P19468).
T1 construct: highly purified rat kidney gamma-GCS; from tissue; host or cells: rat kidney
The series is described as follows: Inhibition of mammalian gamma-GCS, protocol similar to E. coli enzyme. The format is biochemical.

In a further series the test system is Actinomycetes israelii. Description: Patient infected with Actinomycetes israelii. The following applies: 1 mg/kg four times per day i.v. The format is in vivo. The source says: A patient infected with Actinomycetes israelii has a low-grade fever, non-productive cough, and occasional hemoptysis.
Series [2] deals with E. coli. The series is described as follows: Patient with E. coli caused gastroenteritis with bloody diarrhea. Type of series: in vivo. The protocol: A patient with E. coli caused gastroenteritis with bloody diarrhea is administered α-ethyl-L-buthionine-S-sulfoximine (hereinafter α-ethyl BSO) orally at a dose of 10 mmol/kg body weight four times a day.
A patient with E. coli caused gastroenteritis and bloody diarrhea is administered α-ethyl BSO orally at a dose of 10 mmol/kg body weight four times a day. In addition, the patient is given chloramphenicol orally at a dose of 12.5 mg/kg four times a day. Bloody diarrhea resolved in 36 hours.

The test system of series [3] is E. coli. The series is described as follows: Patients with E. coli septicemia. The format is in vivo. The protocol: A person with fever, mild hypotension, and moderate hematuria has blood and urine cultures that are positive for E. coli. They are given a diagnosis of E. coli septicemia and urinary tract infection. […]
A person with E. coli sepsis presents feeling nauseated and gravely ill. However, their blood pressure is stable. They receive a standard regimen of IV antibiotics, including ampicillin and gentamicin as well as the siderophore ferrioxamine B at a dose of 10 mg/kg.
A person with E. coli sepsis presents with a blood pressure of 80/50 mm Hg. Broad spectrum antibiotics are initiated including ampicillin and gentamicin. […] The patient then receives an intravenous dose of nitrosated chloramphenicol, 12.5 mg four times/day IV together with methylene blue IV at a dose of 5 mg/kg as well as fluid support.

In series [4] the target is T2, E. coli gamma-glutamylcysteine synthetase (Escherichia coli, UniProt P0A6W9).
T2 construct: made in house
Description: Inactivation of E. coli gamma-GCS by homocysteine sulfoximines (preincubation with ATP, residual activity by coupled PK/LDH assay). The format is biochemical. To be noted: on an active isomer basis. The protocol: E. coli gamma-GCS was isolated from bacterial cells engineered to overexpress the enzyme; the isolation procedure was similar to that used previously to isolate mammalian gamma-GCS. […] The enzyme was assayed in reaction mixtures (final volume=1.0 ml) containing: 150 mM Tris·HCl, pH 8.2, 100 mM KCl, 25 mM MgCl2, 7.5 mM ATP, 7.5 mM phosphoenolpyruvate, 0.3 mM EDTA, 10 mM L-glutamate, 10 mM L-α-aminobutyrate (an L-cysteine analog), 0.3 mM NADH, 5 IU pyruvate kinase, and 5 IU lactate dehydrogenase. Reaction was initiated by adding gamma-GCS; in control studies, L-α-aminobutyrate was omitted from the reaction mixture. In this assay, pyruvate kinase (PK) and lactate dehydrogenase (LDH) are added in excess to detect formation of ADP, one of the products of the gamma-GCS reaction. The relevant enzyme reactions are shown as equations 1–3 below. Oxidation of NADH to NAD^+ is followed and quantitated spectrophotometrically at 340 nm (1 μmol oxidation gives ΔOD=−6.2) and is directly proportional to product formation by gamma-GCS. [drawing 2]
Inhibition by homocysteine sulfoximines was carried out by preincubating the E. coli gamma-GCS with potential inhibitors in the presence of ATP and then removing aliquots of that mixture at specific times and assaying for residual activity using the assay procedure described above. The preincubation reaction mixtures contained (final volume=400 μl) the following: 210 mM Tris·HCl, pH 8.2, 142 mM KCl, 36 mM MgCl2, 10 mM ATP, 0.4 mM EDTA, various amounts of sulfoximine, and gamma-GCS. At intervals, 50 μl aliquots were removed and added to 1.0 ml assay reaction mixtures to determine residual activity spectrophotometrically. Results of a study indicate that E. coli gamma-GCS loses about 27% of its activity over 30 minutes in the absence of added inhibitors; this loss of activity represents an inherent instability in the enzyme when incubated under these reaction conditions in this particular experiment. […]

The subject of another series is Chlamydia trachomatous. Description: Patients with Chlamydia cervicitis and vaginitis. The format is in vivo. To be noted: α-ethyl BSO 4 mmol/kg and nitrate ester of chloramphenicol 12.5 mg/kg, each four times a day p.o. From the text: A person with a history of multiple sexual partners and recurrent urinary tract infections presents with cervicitis and vaginitis of four days duration. The patient complains of pain and vaginal discharge.

For the next series, the system named is rickettsia. The format is in vivo. To be noted: 4 mmol/kg four times a day p.o. with chloramphenicol 12.5 mg four times a day p.o.
Another series concerns mycoplasma. The following applies: 250 mg three times a day.
The test system of a further series is Streptomycetes. The series is described as follows: Immunocompromised patient with Streptomycetes lesion. Type of series: in vivo. To be noted: 4 mmol/kg three times a day p.o. with trimethoprim and sulfamethoxazole, one month. The protocol:
An immunocompromised patient recovering from bone marrow transplantation develops a lump in their cheek at a place previously scratched by a garden implement. A culture obtained from the lump is positive for Streptomycetes. The patient is given DL-α-amino-δ-butylthio valeric acid-SR-sulfoximine at a dose of 4 mmol/kg body weight three times a day p.o. The patient is also given trimethoprim (160 mg twice a day) and sulfamethoxazole (800 mg twice a day) for one month.

For series [5], the system named is E. coli. The following applies: chloramphenicol alone; cited from earlier work.
The next series relates to athlete's foot. The series is described as follows: Patients with athlete's foot. To be noted: 50 mM added to miconazole cream. Type of series: in vivo. The protocol:
A runner develops athlete's foot. […] They substitute a cream containing the same ingredients, with the exception that S-nitroso-N-acetyl cysteine has been added so as to be present at a concentration of 50 mM.
A marathon runner develops athlete's foot. They treat themself with a topical mixture of inorganic nitrite, acetic acid and thiol in a cream base.

For a further series, the system named is S. typhimurium. To be noted: J. Gen. Microbiol. 72, 291–301 (1972); cited from earlier work.
Series [6] relates to mixed flora and gram-negativerods. Description: Diabetic patient with infected skin ulcer. Type of series: in vivo. To be noted: topical cream with S-nitrosoglutathione, oxidized glutathione and dinitrophenacyl glutathione. The source says:
A patient with diabetes develops a skin ulcer on the lower aspect of their left leg. Cultures grow mixed flora and gram-negativerods. A topical cream is applied that contains S-nitrosoglutathione, oxidized glutathione and the glutathione S-conjugate dinitrophenacyl glutathione.

The test system of a further series is oral thrush. Description: Patients with oral thrush. Type of series: in vivo. The protocol:
An immunocompromised person who is status-post recent chemotherapy develops oral thrush.
A person with leukemia develops oral thrush and is given 2 cc of 50 mM S-nitrosoglutathione, swish and spit, three times/day.
An immunocompromised person with HIV and a low CD4 count develops oral thrush. They are given 5 cc of a solution of 10 mM nitrate.

Another series concerns trypanosomes. The series is described as follows: Patient with trypanosome infection. The format is in vivo. To be noted: L-buthionine-S-sulfoximine 3 mmol/kg p.o. every 4 hours and S-nitrosoglutathione iv 10 mg/kg every 8 hours, one week. The protocol:
A person presents with high fever, moderate lymphadenopathy and reports that they have lost 40 pounds in the last month, two months after returning from a safari in sub-Saharan Africa. On questioning, the patient reports having developed during the safari an ulcer on their forearm two days following a bite by a fly. […] The patient is hospitalized and given L-buthionine-S-sulfoximine at a dose of 3 mmol/kg p.o. every 4 hours for one week. In addition, the patient receives S-nitrosoglutathione iv at a dose of 10 mg/kg every 8 hours for one week.

T1 sequence (P19468 whole entry): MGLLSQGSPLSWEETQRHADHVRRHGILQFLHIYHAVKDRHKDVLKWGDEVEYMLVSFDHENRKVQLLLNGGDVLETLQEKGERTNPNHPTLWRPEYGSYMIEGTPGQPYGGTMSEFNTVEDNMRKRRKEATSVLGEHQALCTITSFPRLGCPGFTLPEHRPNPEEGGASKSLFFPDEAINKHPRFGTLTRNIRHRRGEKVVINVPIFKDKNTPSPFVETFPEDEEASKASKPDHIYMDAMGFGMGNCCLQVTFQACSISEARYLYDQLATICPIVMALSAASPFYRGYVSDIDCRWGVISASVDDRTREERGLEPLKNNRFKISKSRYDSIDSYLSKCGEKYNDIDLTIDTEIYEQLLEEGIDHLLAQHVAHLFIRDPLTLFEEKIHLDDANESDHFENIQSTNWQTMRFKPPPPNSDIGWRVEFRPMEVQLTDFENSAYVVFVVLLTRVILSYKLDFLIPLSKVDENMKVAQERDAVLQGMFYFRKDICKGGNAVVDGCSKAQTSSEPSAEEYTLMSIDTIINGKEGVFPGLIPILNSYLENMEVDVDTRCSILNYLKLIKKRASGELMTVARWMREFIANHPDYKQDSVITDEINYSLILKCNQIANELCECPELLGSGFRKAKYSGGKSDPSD
T1 sequence (P48508 whole entry partner): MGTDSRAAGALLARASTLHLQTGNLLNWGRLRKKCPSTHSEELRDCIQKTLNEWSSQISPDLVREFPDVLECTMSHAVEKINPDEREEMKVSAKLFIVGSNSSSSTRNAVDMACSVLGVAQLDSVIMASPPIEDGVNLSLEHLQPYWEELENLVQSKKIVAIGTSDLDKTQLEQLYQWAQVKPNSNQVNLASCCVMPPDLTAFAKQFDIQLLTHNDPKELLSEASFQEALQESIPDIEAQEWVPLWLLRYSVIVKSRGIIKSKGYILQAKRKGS
T2 sequence (P0A6W9 whole entry): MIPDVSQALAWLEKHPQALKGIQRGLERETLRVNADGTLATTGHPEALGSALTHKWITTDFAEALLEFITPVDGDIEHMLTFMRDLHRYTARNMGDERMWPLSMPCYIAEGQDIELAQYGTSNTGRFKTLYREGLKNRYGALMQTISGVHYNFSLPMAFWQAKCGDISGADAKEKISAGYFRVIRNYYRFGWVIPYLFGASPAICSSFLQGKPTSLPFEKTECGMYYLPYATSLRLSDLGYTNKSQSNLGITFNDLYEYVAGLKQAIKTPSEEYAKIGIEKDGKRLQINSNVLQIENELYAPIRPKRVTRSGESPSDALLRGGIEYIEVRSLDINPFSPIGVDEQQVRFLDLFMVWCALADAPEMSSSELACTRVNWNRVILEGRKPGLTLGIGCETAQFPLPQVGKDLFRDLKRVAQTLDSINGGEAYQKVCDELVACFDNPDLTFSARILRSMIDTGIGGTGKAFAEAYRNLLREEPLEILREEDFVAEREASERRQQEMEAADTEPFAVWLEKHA

Regarding `NC(=O)NO` [hydroxyurea], the “reduction in size of metastatic tumor” value in series [1] is 30%.
Regarding `CCCCS(=N)(=O)CCC(N)(CC)C(=O)O` (racemic) [α-ethyl-DL-buthionine-SR-sulfoximine, α-Ethyl-D,L-buthionine-R,S-sulfoximine], the melting point lay within 203 to 205 °C. Further, at rat kidney gamma-GCS (highly purified rat kidney enzyme, DL,SR mixture), the “effectiveness as inhibitor relative to L-buthionine-S-sulfoximine” value amounted to 0.025%.
As for serinyl-S-nitrosocysteinyl-gluatamine, the clinical outcome in the series on Actinomycetes israelii was “symptoms resolve over three weeks”.
Turning to `CCCCS(=N)(=O)CCC(N)(CC)C(=O)O` [α-ethyl-L-buthionine-S-sulfoximine], at rat kidney gamma-GCS (expressed on the basis of the active isomer), the “inhibitory activity relative to L-buthionine-S-sulfoximine” value is recorded as “about 0.1%”. Moreover, the “time to resolution of bloody diarrhea” value with E. coli [2] (10 mmol/kg orally four times a day plus chloramphenicol 12.5 mg/kg orally four times a day) was found to be 36 h. Besides, the clinical outcome in the series with E. coli [2] (orally 10 mmol/kg four times a day) was “Bloody diarrhea resolved over four days”; in the series on E. coli [3] (resistant to conventional antibiotics, 4 mmol/kg four times a day p.o. plus hyperbaric 100% oxygen, ampicillin and gentamicin continued), “symptoms resolve within four days”; in the series on E. coli [3] (septicemia and urinary tract infection, α-ethyl BSO 4 mmol/kg four times a day p.o., S-nitroso-gamma-methyl-L-homocysteine 50 μg/kg i.v., gentamicin), “symptoms resolve and blood and urine cultures are negative for E. coli after two weeks”. For the same compound, in [4], the “effectiveness as inhibitor relative to L-S-BSO” value is “about 20%”. For the same compound, the “time to resolution of infection” value in the series with Chlamydia trachomatous turned out to be 10 days. Moreover, the “time until patient becomes well” value with rickettsia came to 10 days.
Turning to `CC[C@H]1OC(=O)[C@H](C)[C@@H](O[C@H]2C[C@@](C)(OC)[C@@H](O)[C@H](C)O2)[C@H](C)[C@@H](O[C@@H]2O[C@H](C)C[C@H](N(C)C)[C@H]2O)[C@](C)(O)C[C@@H](C)C(=O)[C@H](C)[C@@H](O)[C@]1(C)O` [erythromycin], the clinical outcome in the series with mycoplasma was “symptoms linger”.
Regarding `CCCCS(=N)(=O)CCCC(N)C(=O)O` (racemic) [DL-α-amino-δ-butylthio valeric acid-SR-sulfoximine], in the series with Streptomycetes, the clinical outcome is recorded as “lesion in patient's cheek resolves completely”.
Regarding `O=C(N[C@H](CO)[C@H](O)c1ccc([N+](=O)[O-])cc1)C(Cl)Cl` [Chloramphenicol, chloramphenicol], in the series on E. coli [5], the “usual time to effect” value is given as “normally has effect in three days”.
For `CC(=O)N[C@@H](CSN=O)C(=O)O` [S-nitroso-N-acetyl cysteine], the clinical outcome in the series on athlete's foot is reported as “symptoms improve over seven days”.
`c1nc[nH]n1` [1,2,4-trazole]: the bacterial growth result in the series with S. typhimurium is given as “inhibiting the growth of S. typhimurium”.
Consider dinitrophenacyl glutathione, for which, in series [6], the clinical outcome is “culture of the ulcer becomes sterile over three days”.
For the compound `O=[N+]([O-])O` [nitrate], in the series on oral thrush (5 cc of 10 mM solution), the clinical outcome is given as “thrush resolves”.
Turning to `N[C@@H](CCC(=O)N[C@@H](CSN=O)C(=O)NCC(=O)O)C(=O)O` [S-nitrosoglutathione], the clinical outcome with trypanosomes is recorded as “blood smear is free of trypanosomes”; in series [6], “culture of the ulcer becomes sterile over three days”; in the series with oral thrush (2 cc of 50 mM, swish and spit, three times/day), “much improved in three days”.
